In patent US12030896B2, “PIKfyve inhibitors” (Mayo Foundation for Medical Education and Research, priority 2018, dated 2024):
pEC50: −log10 of the molar value.

What was measured:
cells in culture = test: Vacuolization activity in cells in culture; assay type: cell-based
Excerpt: As used herein the term “EC50 (μM)” refers to the μM concentration of a compound that is required for 50% activity in a vacuolization assay.
Example 2 is a biotinylated derivative of the compound of Example 1.

U251 glioblastoma cell = test: Cell killing in combination with vemurafenib; assay type: cell-based, human; conditions: 10 μM vemurafenib, 0 μM Example 1, 72 hour
Experimental: A 25 mM stock of vemurafenib (obtained from Selleckchem) in DMSO was diluted to 2× the indicated concentration into the cell suspension immediately prior to plating the cell suspension onto the pre-diluted Example 1 or Example 3, to result in a final 1× concentration of both compounds.
See FIG. 13 for showing of U251 glioblastoma cell killing by Example 1 alone or in the presence of 10 μM vemurafenib over a 72 hour time course.

468 kinases = test: Kinase selectivity panel (Treespot dendrogram); assay type: binding
Experimental: In contrast, 50 nM Apilimod inhibited two kinases to 1% or 10%, and 3 kinases to 35% of control. To examine non-specific binding at higher concentrations, Example 1, Example 3, and Apilimod were tested at 5000 nM. […] PIKfyve is represented at the bottom left of each dendrogram.

IL12 and IL23 = conditions: myeloid cells; cited from earlier work
[1] = oral; cited from earlier work
[2] = cited from earlier work

Q: With `O=C(CCCC[C@@H]1SC[C@@H]2NC(=O)N[C@@H]21)Nc1ccc(Nc2nc(N/N=C/c3c[nH]c4ccccc34)nc(N3CCOCC3)n2)cc1` [Example 2, (E)-N-(4-((4-(2-((1H-indol-3-yl)methylene)hydrazinyl)-6-morpholino-1,3,5-triazin-2-yl)amino)phenyl)-5-(2-oxohexahydro-1H-thieno[3,4-d]imidazol-4-yl)pentanamide] as the compound, how does the pEC50 (cells in culture) read?
A: Its pEC50 is 8.10.

Q: With `CCCS(=O)(=O)Nc1ccc(F)c(C(=O)c2c[nH]c3ncc(-c4ccc(Cl)cc4)cc23)c1F` [vemurafenib, N-(3-(5-(4-chlorophenyl)-1H-pyrrolo[2,3-b]pyridine-3-carbonyl)-2,4-difluorophenyl)propane-1-sulfonamide, reference compound] as the compound, how does the “effect on cell killing, alone” value (U251 glioblastoma cell) read?
A: The value was “little effect”.

Q: With `Cc1cccc(/C=N/Nc2cc(N3CCOCC3)nc(OCCc3ccccn3)n2)c1` [Apilimod, 3-Methylbenzaldehyde 2-[6-(4-Morpholinyl)-2-[2-(2-pyridinyl)ethoxy]-4-pyrimidinyl]hydrazine] as the compound, how does the “number of kinases blocked to 1% of control” value (468 kinases; 50 nM, 468 kinases) read?
A: The value was “two”.

Q: What about the “number of kinases blocked to 10% of control” value (468 kinases; 50 nM, 468 kinases) of the same compound?
A: The value was “two”.

Q: What about the “number of kinases blocked to 35% of control” value (468 kinases; 50 nM, 468 kinases) of the same compound?
A: Its value is 3.

Q: What about the “number of kinases blocked to 1% activity level” value (468 kinases; 5000 nM) of the same compound?
A: Its value is 4.

Q: What about the “number of kinases blocked to 10% activity level” value (468 kinases; 5000 nM) of the same compound?
A: Its value is 9.

Q: And the “number of kinases blocked to 35% activity level” value (468 kinases; 5000 nM)?
A: The value was 15.

Q: What about the “selectivity for PIKfyve” value (468 kinases; comparison of Example 1, Example 3 and apilimod) of the same compound?
A: Its value is “less specific”.

Q: And the “IL12 and IL23 production” value (IL12 and IL23)?
A: Its value is “suppresses”.

Q: And the “IFN-gamma production by ex vivo cells” value [1]?
A: The value was “decreased”.

Q: What about the “TH1 / TH2 responses” value [1] of the same compound?
A: The value was “suppressed TH1 but not TH2 responses”.

Q: And the “inflammatory histopathologic skin changes” value [1]?
A: The value was “markedly reduced”.

Q: And the dose limiting toxicity ([2]; headache, flushing, hypoesthesia, dizziness, paresthesia)?
A: Its dose limiting toxicity is 105 mg bid.

Q: What about the “mean improvement in PASI score” value ([2]; oral, 70 mg qd) of the same compound?
A: Its value is 46%.

Q: And the “patients with histologic improvement” value ([2]; oral, 70 mg qd)?
A: Its value is 47%.

Q: And the “IL12 and IL23 expression in skin lesions” value ([2]; oral)?
A: The value was “significantly reduced”.
